Paper PMC3138047 (Evidence-based Complementary and Alternative Medicine : eCAM, 2011)

Legend:
Experiment in all cases: [3H]-dTTP incorporation into poly(dA)/oligo(dT)[…]
Assay type in all cases: biochemical
calf pol α = target: T1, calf pol α (Bos taurus, UniProt A0AAA9THK8); details: read-out: relative pol activity at 100 μM
T1 construct: gene POLA1; with DNA polymerase alpha subunit B; DNA primase small subunit; DNA primase large subunit

human pol κ [1] = target: T2, human pol κ (Homo sapiens, UniProt Q9UBT6); details: read-out: relative pol activity at 100 μM
T2 construct: gene POLK; truncated, residues 1-560, C-terminal 6xHis tag, produced in E. coli
T2 sequence (Q9UBT6 1-560): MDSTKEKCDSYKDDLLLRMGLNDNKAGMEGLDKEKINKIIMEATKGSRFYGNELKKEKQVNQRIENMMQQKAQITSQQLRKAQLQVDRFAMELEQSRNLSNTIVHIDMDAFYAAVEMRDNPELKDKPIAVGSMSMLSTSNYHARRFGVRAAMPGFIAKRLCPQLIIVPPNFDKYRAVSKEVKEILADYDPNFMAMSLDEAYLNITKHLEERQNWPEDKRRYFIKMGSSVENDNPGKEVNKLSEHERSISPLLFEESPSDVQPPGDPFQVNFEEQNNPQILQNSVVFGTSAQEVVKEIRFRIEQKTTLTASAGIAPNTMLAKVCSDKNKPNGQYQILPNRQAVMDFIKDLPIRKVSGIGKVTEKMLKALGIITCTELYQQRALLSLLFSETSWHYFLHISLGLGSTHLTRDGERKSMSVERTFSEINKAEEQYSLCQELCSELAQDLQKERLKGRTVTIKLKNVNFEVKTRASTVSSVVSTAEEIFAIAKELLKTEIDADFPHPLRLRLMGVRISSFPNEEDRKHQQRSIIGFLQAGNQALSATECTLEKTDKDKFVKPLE

human pol λ [2] = target: T3, human pol λ (Homo sapiens, UniProt Q9UGP5); details: read-out: relative pol activity at 100 μM
T3 construct: gene POLL; recombinant, His-tagged
T3 sequence (Q9UGP5 1-575): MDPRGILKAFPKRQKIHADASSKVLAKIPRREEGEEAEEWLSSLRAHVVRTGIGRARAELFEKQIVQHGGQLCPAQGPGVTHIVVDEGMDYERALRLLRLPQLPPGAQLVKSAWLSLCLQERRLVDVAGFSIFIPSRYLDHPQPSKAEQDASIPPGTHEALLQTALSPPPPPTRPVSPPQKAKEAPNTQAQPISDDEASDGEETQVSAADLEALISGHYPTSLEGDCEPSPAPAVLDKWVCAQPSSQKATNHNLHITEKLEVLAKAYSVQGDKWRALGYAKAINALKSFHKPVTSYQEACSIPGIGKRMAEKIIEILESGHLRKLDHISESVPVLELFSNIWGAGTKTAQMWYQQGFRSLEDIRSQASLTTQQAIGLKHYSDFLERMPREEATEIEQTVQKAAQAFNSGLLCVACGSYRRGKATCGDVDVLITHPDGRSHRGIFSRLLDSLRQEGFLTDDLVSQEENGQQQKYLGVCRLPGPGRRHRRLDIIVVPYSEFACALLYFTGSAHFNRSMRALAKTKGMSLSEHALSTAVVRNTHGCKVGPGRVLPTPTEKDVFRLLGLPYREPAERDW

human pol λ [3] = target: T3, human pol λ
human pol κ [4] = target: T2, human pol κ
human pol γ = target: T4, human pol γ (Homo sapiens, UniProt P54098)
T4 construct: gene POLG
T4 sequence (P54098 1-1239): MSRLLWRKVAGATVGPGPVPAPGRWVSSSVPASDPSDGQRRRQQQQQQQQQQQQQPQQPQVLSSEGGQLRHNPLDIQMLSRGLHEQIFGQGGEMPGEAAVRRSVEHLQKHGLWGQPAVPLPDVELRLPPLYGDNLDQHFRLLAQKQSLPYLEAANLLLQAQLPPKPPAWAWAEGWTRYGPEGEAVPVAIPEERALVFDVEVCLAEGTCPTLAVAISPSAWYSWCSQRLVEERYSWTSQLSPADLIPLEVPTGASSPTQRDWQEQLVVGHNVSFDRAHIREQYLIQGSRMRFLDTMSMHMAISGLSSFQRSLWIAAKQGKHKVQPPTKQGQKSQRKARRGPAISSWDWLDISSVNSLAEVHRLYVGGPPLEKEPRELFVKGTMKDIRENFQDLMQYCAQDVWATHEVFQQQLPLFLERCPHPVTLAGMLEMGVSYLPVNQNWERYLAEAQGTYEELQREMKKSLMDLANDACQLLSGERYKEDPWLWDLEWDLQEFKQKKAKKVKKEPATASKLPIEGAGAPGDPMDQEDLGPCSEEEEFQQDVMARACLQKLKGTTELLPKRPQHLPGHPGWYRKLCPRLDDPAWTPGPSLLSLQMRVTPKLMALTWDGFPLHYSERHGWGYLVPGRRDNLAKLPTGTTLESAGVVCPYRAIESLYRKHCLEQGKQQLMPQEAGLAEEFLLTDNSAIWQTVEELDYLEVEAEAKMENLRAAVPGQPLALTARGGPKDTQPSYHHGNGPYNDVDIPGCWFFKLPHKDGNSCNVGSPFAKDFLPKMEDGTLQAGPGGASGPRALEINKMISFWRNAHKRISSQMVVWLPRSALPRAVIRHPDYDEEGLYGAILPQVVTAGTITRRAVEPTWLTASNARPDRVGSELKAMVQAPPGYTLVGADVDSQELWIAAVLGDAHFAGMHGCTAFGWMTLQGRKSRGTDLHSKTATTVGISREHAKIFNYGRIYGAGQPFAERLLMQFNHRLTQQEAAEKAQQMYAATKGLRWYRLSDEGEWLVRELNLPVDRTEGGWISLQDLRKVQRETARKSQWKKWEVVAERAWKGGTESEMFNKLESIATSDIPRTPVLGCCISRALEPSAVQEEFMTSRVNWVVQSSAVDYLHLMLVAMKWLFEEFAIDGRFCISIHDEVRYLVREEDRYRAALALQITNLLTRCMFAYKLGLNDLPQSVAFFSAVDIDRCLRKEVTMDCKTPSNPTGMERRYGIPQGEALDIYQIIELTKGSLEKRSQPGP

T1 sequence (A0AAA9THK8 1-1487): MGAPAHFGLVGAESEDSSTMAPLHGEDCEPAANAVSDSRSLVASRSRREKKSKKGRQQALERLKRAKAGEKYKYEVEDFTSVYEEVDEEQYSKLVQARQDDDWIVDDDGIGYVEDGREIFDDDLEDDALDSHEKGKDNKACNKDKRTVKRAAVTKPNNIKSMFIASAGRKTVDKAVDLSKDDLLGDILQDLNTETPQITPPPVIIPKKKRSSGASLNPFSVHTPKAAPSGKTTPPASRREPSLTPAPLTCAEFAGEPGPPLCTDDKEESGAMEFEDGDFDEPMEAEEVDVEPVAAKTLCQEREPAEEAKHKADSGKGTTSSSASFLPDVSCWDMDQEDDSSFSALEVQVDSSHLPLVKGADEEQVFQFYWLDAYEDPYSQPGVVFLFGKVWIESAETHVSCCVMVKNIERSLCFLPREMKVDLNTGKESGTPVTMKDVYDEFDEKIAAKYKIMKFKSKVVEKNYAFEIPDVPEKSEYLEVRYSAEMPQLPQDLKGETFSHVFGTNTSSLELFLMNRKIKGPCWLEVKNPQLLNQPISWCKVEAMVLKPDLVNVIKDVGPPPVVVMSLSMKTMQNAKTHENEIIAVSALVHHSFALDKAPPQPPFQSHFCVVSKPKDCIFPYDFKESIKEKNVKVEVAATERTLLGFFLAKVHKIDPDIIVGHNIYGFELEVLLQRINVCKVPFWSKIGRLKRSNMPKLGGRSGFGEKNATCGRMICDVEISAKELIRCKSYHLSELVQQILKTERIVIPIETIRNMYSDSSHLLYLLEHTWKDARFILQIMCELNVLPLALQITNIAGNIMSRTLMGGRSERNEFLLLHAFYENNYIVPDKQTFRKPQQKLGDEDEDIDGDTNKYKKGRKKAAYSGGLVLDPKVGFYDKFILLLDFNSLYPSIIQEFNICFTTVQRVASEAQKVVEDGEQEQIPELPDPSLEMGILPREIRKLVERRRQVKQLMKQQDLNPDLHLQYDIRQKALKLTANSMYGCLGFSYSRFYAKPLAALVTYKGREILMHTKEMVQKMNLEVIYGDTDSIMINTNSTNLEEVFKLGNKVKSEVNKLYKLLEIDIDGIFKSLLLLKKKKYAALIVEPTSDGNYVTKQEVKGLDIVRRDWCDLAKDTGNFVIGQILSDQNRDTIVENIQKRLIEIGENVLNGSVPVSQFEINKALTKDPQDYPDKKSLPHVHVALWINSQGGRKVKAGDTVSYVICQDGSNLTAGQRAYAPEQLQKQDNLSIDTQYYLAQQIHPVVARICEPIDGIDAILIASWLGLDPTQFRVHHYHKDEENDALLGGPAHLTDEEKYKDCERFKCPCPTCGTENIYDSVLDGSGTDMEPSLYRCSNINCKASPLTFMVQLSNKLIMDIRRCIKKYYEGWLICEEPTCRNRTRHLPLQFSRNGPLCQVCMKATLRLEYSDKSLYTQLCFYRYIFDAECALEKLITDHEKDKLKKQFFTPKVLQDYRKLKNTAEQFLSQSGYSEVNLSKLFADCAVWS
T1 sequence (Q58D13 whole entry partner): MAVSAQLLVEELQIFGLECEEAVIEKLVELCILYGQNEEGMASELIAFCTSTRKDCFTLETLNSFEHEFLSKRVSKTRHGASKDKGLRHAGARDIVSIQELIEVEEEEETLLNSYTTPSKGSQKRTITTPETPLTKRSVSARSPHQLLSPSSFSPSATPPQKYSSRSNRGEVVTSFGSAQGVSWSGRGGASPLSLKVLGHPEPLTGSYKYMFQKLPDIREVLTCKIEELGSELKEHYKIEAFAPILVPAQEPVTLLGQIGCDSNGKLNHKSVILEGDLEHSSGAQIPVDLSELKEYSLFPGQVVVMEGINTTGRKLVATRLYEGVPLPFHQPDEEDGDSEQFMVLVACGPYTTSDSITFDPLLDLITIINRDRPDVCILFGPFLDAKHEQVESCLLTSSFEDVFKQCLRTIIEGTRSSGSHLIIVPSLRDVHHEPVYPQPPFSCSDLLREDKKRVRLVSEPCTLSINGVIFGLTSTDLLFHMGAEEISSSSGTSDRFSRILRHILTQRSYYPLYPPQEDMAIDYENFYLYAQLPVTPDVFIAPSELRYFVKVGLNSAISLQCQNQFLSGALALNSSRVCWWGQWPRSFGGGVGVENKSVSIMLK
T1 sequence (A0A3Q1MF00 1-418 partner): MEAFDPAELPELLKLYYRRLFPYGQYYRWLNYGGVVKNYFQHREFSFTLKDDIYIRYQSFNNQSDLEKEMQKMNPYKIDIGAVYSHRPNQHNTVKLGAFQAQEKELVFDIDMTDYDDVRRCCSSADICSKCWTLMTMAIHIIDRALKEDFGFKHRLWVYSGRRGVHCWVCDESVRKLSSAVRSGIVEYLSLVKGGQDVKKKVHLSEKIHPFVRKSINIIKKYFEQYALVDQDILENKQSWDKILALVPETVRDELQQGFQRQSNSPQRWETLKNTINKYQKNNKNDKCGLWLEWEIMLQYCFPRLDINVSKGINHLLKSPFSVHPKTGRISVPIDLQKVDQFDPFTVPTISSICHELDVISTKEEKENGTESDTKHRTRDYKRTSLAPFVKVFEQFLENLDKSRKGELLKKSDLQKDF
T1 sequence (A0JNF4 1-506 partner): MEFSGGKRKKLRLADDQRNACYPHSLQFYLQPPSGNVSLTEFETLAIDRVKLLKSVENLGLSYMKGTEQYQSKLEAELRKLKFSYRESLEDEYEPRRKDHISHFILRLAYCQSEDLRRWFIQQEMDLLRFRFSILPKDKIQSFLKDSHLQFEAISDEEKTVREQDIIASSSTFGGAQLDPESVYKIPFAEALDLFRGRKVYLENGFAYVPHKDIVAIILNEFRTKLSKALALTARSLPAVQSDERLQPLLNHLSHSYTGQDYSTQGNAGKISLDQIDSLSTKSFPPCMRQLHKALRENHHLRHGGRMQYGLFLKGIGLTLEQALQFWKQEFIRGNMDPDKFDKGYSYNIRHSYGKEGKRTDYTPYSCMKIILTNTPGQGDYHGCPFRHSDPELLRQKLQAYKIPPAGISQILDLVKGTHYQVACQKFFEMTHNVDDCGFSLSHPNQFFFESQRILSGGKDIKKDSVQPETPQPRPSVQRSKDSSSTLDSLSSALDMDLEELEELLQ

activity at 100 µM (calf pol α) [%] | activity at 100 µM (human pol κ [1]) [%] | activity at 100 µM (human pol λ [2]) [%] | IC50 (human pol λ [3]) [µM] | IC50 (human pol κ [4]) [µM] | IC50 (human pol γ) [µM] | Compound
< 50 | < 50 | < 50 |  |  |  | CC1(C)[C@@H](O[C@H]2O[C@H](C(=O)O)[C@@H](O)[C@H](O)[C@H]2O[C@@H]2O[C@H](C(=O)O)[C@@H](O)[C@H](O)[C@H]2O)CC[C@]2(C)[C@H]3C(=O)C=C4[C@@H]5C[C@@](C)(C(=O)O)CC[C@]5(C)CC[C@@]4(C)[C@]3(C)CC[C@@H]12 [compound 1, 3-O-(2-O-β-D-glucopyranuronosyl-α-D-glucopyranuronosyl)-18β-glycyrrhetinic acid]
< 50 |  | < 50 |  |  |  | CC1(C)[C@@H](O[C@@H]2O[C@H](C(=O)O)[C@@H](O)[C@H](O)[C@H]2O[C@@H]2O[C@H](C(=O)O)[C@@H](O)[C@H](O)[C@H]2O)CC[C@]2(C)[C@H]3C(=O)C=C4[C@@H]5C[C@@](C)(C(=O)O)CC[C@]5(C)CC[C@@]4(C)[C@]3(C)CC[C@@H]12 [compound 2, dipotassium glycyrrhizate]
 |  |  | 13.7 | 15.8 | 19.3 | CC1(C)[C@@H](O)CC[C@]2(C)[C@H]3C(=O)C=C4[C@@H]5C[C@@](C)(C(=O)O)CC[C@]5(C)CC[C@@]4(C)[C@]3(C)CC[C@@H]12 [compound 3, Glycyrrhetinic acid]
